Measured values taken from US9493440B2, “Compounds inhibiting leucine-rich repeat kinase enzyme activity” (Merck Sharp & Dohme Corp., priority 2013, dated 2016).

Legend:
Assay type in all cases: biochemical
Settings in all cases: 1 μM of the Example
AURKB (Aurora B) = AURKB (Aurora B) (Homo sapiens (Human), UniProt Q96GD4); assay: Kinase selectivity, Z'-LYTE assay platform
BRAF V599E = BRAF V599E (Homo sapiens (Human), UniProt P15056, V600E); assay: Kinase selectivity, Z'-LYTE assay platform
CDK1/cyclin B = CDK1/cyclin B (Homo sapiens (Human), UniProt P06493); assay: Kinase selectivity, Z'-LYTE assay platform
Chain of CDK1/cyclin B (P06493 whole entry): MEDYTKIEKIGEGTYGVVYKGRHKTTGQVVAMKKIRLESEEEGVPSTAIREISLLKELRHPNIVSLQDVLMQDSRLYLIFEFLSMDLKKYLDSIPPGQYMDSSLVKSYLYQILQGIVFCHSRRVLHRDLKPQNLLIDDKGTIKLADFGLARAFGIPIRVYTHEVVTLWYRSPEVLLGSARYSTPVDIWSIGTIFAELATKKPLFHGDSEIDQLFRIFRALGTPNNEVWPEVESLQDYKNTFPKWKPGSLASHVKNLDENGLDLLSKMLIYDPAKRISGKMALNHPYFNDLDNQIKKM
Chain of CDK1/cyclin B (P14635 whole entry partner): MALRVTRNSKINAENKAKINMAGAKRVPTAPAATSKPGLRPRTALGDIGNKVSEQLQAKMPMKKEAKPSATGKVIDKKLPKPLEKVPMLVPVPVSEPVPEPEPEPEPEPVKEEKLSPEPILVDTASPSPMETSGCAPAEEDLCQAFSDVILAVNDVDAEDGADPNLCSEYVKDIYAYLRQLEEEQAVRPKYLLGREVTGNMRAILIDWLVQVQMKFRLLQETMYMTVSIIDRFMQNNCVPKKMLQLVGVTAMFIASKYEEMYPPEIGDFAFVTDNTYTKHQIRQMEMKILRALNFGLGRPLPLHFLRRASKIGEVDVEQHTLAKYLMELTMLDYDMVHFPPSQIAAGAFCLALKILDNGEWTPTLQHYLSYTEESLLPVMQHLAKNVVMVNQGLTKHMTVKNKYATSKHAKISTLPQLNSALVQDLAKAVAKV

CHEK2 (CHK2) = CHEK2 (CHK2) (Homo sapiens (Human), UniProt O96017); assay: Kinase selectivity, Z'-LYTE assay platform
Chain of CHEK2 (CHK2) (O96017 whole entry): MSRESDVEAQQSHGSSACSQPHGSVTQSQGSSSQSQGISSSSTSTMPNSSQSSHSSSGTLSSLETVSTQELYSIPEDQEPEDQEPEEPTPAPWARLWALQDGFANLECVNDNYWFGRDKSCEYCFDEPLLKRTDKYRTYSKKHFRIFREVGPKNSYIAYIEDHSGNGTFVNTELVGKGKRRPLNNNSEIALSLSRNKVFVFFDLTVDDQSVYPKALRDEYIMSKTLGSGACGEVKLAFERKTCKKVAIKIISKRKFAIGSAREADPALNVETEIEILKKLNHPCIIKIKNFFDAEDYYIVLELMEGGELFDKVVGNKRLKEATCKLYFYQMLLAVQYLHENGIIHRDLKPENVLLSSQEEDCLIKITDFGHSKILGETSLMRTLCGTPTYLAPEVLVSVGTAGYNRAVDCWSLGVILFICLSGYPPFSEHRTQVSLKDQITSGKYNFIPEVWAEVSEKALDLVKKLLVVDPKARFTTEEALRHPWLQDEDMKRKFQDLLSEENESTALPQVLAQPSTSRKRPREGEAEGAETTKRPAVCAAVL

CLK2 = CLK2 (Homo sapiens (Human), UniProt P49760); assay: Kinase selectivity, Z'-LYTE assay platform
Chain of CLK2 (P49760 whole entry): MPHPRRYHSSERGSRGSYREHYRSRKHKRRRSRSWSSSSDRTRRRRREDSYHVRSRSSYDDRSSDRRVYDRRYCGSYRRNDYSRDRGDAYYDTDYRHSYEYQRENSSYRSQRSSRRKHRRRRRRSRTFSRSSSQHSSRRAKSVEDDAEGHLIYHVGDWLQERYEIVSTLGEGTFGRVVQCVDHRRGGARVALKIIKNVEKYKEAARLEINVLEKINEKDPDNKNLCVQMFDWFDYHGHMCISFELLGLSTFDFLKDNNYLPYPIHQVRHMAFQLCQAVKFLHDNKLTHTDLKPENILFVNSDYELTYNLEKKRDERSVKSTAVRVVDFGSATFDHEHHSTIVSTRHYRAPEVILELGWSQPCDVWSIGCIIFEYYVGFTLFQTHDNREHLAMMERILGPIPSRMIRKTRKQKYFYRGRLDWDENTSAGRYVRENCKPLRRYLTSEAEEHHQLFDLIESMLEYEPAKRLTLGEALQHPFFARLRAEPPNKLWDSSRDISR

DYRK1A = DYRK1A (Homo sapiens (Human), UniProt Q13627); assay: Kinase selectivity, Z'-LYTE assay platform
IRAK1 = IRAK1 (Homo sapiens (Human), UniProt P51617); assay: Kinase selectivity, Adapta assay platform
Chain of IRAK1 (P51617 whole entry): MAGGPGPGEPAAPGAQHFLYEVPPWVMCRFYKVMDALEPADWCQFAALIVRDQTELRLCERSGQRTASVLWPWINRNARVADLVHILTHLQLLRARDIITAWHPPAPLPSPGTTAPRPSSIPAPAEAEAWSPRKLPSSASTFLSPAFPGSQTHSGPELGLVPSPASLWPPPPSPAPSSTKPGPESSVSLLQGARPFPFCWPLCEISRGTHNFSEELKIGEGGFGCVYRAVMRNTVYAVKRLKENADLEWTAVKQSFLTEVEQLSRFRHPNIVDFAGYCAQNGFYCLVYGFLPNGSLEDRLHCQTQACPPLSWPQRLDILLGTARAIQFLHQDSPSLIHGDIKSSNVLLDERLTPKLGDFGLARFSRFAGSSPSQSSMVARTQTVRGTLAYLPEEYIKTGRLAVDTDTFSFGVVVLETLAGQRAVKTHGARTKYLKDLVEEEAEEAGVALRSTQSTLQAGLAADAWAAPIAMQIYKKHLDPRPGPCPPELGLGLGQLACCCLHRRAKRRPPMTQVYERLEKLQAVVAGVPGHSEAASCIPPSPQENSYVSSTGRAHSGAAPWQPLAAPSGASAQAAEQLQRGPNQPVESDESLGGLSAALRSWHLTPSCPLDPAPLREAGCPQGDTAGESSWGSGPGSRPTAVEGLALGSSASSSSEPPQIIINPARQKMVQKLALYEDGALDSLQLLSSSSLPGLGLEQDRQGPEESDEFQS

JAK3 = JAK3 (Homo sapiens (Human), UniProt P52333); assay: Kinase selectivity, Z'-LYTE assay platform
Chain of JAK3 (P52333 whole entry): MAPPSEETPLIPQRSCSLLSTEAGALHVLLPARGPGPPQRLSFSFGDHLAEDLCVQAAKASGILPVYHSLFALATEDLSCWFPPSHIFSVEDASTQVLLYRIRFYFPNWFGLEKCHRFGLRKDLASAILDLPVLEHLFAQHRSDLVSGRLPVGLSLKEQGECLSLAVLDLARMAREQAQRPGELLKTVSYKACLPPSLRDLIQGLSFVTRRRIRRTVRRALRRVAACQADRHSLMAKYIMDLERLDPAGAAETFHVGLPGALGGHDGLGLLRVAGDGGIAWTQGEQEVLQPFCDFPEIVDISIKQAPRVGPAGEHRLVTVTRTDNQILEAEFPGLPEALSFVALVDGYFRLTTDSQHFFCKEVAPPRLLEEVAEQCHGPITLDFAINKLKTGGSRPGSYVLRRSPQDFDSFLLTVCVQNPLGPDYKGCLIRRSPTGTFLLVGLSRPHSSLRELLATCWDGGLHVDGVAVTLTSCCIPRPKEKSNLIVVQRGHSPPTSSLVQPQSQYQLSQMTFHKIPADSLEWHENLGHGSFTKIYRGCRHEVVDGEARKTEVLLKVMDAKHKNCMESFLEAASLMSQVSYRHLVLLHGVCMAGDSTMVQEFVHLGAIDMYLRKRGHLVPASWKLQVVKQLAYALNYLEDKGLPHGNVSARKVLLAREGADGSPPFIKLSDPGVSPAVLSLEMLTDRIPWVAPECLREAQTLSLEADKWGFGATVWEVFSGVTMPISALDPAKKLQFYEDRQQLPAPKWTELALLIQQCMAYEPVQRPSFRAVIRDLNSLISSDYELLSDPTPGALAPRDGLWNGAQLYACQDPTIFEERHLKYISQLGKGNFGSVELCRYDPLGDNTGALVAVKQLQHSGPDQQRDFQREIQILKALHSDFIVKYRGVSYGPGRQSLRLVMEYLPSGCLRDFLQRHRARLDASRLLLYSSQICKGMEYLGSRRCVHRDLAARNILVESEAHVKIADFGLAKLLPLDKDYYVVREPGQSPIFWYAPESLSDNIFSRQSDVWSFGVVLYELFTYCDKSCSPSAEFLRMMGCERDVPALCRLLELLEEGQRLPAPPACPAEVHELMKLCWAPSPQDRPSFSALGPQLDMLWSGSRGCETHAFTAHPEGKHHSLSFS

MAPK1 (ERK2) = MAPK1 (ERK2) (Homo sapiens (Human), UniProt P28482); assay: Kinase selectivity, Z'-LYTE assay platform
Chain of MAPK1 (ERK2) (P28482 whole entry): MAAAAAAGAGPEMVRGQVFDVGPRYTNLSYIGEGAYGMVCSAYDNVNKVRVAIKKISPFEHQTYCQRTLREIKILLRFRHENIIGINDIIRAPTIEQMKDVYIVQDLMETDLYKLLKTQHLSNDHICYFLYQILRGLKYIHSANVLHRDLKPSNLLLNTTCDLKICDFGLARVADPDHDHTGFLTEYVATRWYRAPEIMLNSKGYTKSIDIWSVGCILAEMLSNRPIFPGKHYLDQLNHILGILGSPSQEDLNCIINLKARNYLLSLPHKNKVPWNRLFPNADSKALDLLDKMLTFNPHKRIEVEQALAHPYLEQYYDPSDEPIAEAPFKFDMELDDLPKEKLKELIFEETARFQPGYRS

MAPK8 (JNK1) = MAPK8 (JNK1) (Homo sapiens (Human), UniProt P45983); assay: Kinase selectivity, Z'-LYTE assay platform
Chain of MAPK8 (JNK1) (P45983 whole entry): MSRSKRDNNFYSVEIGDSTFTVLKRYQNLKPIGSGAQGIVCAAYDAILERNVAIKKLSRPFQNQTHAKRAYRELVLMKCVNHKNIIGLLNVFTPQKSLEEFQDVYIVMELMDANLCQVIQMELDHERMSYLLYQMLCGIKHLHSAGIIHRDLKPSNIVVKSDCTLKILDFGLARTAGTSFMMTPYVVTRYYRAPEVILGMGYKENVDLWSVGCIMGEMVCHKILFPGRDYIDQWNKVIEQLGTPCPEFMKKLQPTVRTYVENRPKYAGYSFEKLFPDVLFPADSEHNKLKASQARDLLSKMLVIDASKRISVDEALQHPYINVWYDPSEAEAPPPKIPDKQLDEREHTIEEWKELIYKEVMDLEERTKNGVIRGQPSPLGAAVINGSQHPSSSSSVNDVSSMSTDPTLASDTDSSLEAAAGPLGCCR

Chain of BRAF V599E (P15056 416-766 V600E limits assumed): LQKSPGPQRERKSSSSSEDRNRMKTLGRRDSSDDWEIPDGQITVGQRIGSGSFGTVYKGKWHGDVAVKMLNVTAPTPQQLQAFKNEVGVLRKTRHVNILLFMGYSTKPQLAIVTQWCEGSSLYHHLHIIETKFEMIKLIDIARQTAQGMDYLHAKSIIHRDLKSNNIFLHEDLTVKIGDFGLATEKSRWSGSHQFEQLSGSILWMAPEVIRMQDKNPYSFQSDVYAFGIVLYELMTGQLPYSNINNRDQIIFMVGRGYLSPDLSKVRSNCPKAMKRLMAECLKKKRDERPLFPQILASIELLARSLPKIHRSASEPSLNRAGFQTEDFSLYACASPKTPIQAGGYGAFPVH

| percent inhibition AURKB (Aurora B) (AURKB (Aurora B)) [%] | percent inhibition BRAF V599E (BRAF V599E) [%] | percent inhibition CDK1/cyclin B (CDK1/cyclin B) [%] | percent inhibition CHEK2 (CHK2) (CHEK2 (CHK2)) [%] | percent inhibition CLK2 (CLK2) [%] | percent inhibition DYRK1A (DYRK1A) [%] | percent inhibition IRAK1 (IRAK1) [%] | percent inhibition JAK3 (JAK3) [%] | percent inhibition MAPK1 (ERK2) (MAPK1 (ERK2)) [%] | percent inhibition MAPK8 (JNK1) (MAPK8 (JNK1)) [%] | SMILES |
| --- | --- | --- | --- | --- | --- | --- | --- | --- | --- | --- |
| 28 | 24 | 10 | 21 | 57 | 16 | 23 | 7 | 8 | 56 | CC1(Oc2ccc3[nH]nc(-c4cc(N5CCOCC5)ncn4)c3c2)CC1 [Example 1] |
| 37 | 11 | 43 | 17 | 53 | 5 | 31 | 12 | 10 | 40 | CO[C@H]1CCN(c2cc(-c3n[nH]c4ccc(OC5(C)CC5)cc34)ncn2)C1 [Example 12] |

| SMILES | percent inhibition AURKB (Aurora B) (AURKB (Aurora B)) [%] | percent inhibition BRAF V599E (BRAF V599E) [%] | percent inhibition CDK1/cyclin B (CDK1/cyclin B) [%] | percent inhibition CHEK2 (CHK2) (CHEK2 (CHK2)) [%] | percent inhibition CLK2 (CLK2) [%] | percent inhibition DYRK1A (DYRK1A) [%] | percent inhibition IRAK1 (IRAK1) [%] | percent inhibition JAK3 (JAK3) [%] | percent inhibition MAPK1 (ERK2) (MAPK1 (ERK2)) [%] | percent inhibition MAPK8 (JNK1) (MAPK8 (JNK1)) [%] |
| --- | --- | --- | --- | --- | --- | --- | --- | --- | --- | --- |
| C[C@@H]1CN(c2cc(-c3n[nH]c4ccc(OC5(C)CC5)cc34)ncn2)C[C@H](C)O1 [Example 51] | 16 | 10 | 1 | 15 | 55 | 4 | −15 | 7 | −4 | 0 |
